# According to the supplement of paper PMC6470124:
# Assays:
# [1] = absolute recovery over mixed-bed multilayer solid-phase extraction; higher = better recovery; details: enrichment method: SPE
# Outline: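 A three-layer mixed-bed cartridge was loaded with 100–250 mL of wastewater (adjusted to pH 6.5, glass-fibre filtered) or 1000 mL of unfiltered nanopure water, then eluted with basic and subsequently acidic ethyl acetate/methanol. Standards were introduced pre-extraction, post-extraction, or not at all, at 200 ng/L for water and 1000 ng/L for wastewater, except for certain classes. Once internal standards had been added, both ionisation modes were run by liquid chromatography with high-resolution tandem mass spectrometry. Absolute recovery was derived from background-corrected response ratios of pre- against post-spiked samples, averaged over at least two replicates.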
# [2] = LC retention time (Atlantis T3, 5-95% MeOH gradient, 0.1% formic acid); higher = more retained / less polar
# Outline: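 Retention times refer to reference standards measured by liquid chromatography with high-resolution tandem mass spectrometry. Separation was on an Atlantis T3 C18 column (3 × 150 mm, 3 μm) at 0.3 mL/min with a 5 to 95% methanol gradient over 17.5 min, both solvents carrying 0.1% formic acid. Positive and negative electrospray were run separately on a QExactive Plus, and TraceFinder peak integration (5 ppm tolerance, at least three points per peak) was reviewed by hand.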
# [3] = absolute recovery over vacuum-assisted evaporative concentration; higher = better recovery; details: enrichment method: VEC
# Outline: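 Water samples (influent 6 mL, effluent 15 mL, surface and nanopure water 60 mL) were spiked with standards before concentration, after concentration or not at all, at 200 ng/L (nanopure/surface) or 1000 ng/L (wastewater), with class- and compound-specific adjustments. They were evaporated at 55 °C and 20 mbar to about 0.3 mL, brought to 0.4 mL and centrifuged. Internal standards were added afterwards and samples were analysed by LC-HRMS/MS. Absolute recovery was (response ratio pre − unspiked)/(post − unspiked) × 100, using averages of ≥ 2 replicates.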
SMILES,absolute recovery ([1]; nanopure water) [%],absolute recovery ([1]; surface water) [%],absolute recovery ([1]; wastewater effluent) [%],absolute recovery ([1]; wastewater influent) [%],LC retention time [2] [min],absolute recovery ([3]; wastewater effluent) [%],absolute recovery ([3]; wastewater influent) [%]
CC(C)=NOCCOC(=O)C(C)Oc1ccc(Oc2cnc3cc(Cl)ccc3n2)cc1 (stereo not drawn) [Propaquizafop],79.1,91.4,93.7,80.9,22.4,68.4,13.2
CCC1OC(=O)C(C)C(OC2CC(C)(OC)C(O)C(C)O2)C(C)C(OC2OC(C)CC([N+](C)(C)[O-])C2O)C(C)(OC)CC(C)C(=O)C(C)C(O)C1(C)O (stereo not drawn) [Clarithromycin-N-Oxide],91.1,85.3,96.6,93.9,17.3,103,95.9
CCCCCCCCn1sc(Cl)c(Cl)c1=O [4-5-Dichloro-2-n-octyl-isothiazol-3(2H)-on (=DCOIT)],93,62.5,66.5,60.8,22.7,19.3,–
CC(=O)OC1C(C)OC(n2cc(F)c(N)nc2=O)C1OC(C)=O (stereo not drawn) [2-3-di-O-acetyl-5-deoxy-5-fluorocytidin],102,100,92.7,84.6,13.9,101,91.8
Cc1nnc(-c2ccccc2)c(=O)n1N [Metamitron],97.1,–,95.8,97.5,14.3,106,98.5
NS(=O)(=O)c1cc(C2(O)NC(=O)c3ccccc32)ccc1Cl (stereo not drawn) [Chlorthalidon],94.1,–,96.5,–,14.2,98.1,104
CCCS(=O)(=O)[O-] [1-Propanesulfonate],4.8,0.3,0.9,1.7,6.6,107,102
COc1nc(C)nc(N)n1 [2-Amino-4-methoxy-6-methyl-1-3-5-triazin],102,112,102,102,9.03,101,106
CC(C)N1C(=O)c2ccccc2[N-]S1(=O)=O [Bentazon],97.3,97.5,–,93.1,17.8,105,101
CC12CCC(=O)C=C1CCC1C2C(O)CC2(C)C(C(=O)CO)CCC12 (stereo not drawn) [Corticosteron],87.8,71.9,71.8,89.1,19,111,55.6
c1ccc(CN2CC[NH2+]CC2)cc1 [1-Benzylpiperazin],58.2,60.9,56.2,72.5,6.45,109,140
Cc1cc(Cl)ccc1OCCCC(=O)[O-] [MCPB],100,95.2,97.5,108,20.3,103,–
CCC(C(N)=O)N1CCCC1=O (stereo not drawn) [Levetiracetam],65.6,60.2,56.3,–,10.9,105,–
OCC(O)C[NH+]1CCN(c2ccccc2)CC1 (stereo not drawn) [Dropropizine],108,108,99.5,86.7,9.49,106,98.7
CC([NH3+])Cc1ccccc1 (stereo not drawn) [Amphetamin],97.7,85.5,87.4,91.8,10.4,97.8,85.5
NC(=O)Nc1ccc(Cl)c(Cl)c1 [Diuron-desdimethyl (=1-(3-4-Dichlorophenyl)urea)],98.3,100,96.4,94.9,18,101,102

SMILES,absolute recovery ([1]; nanopure water) [%],absolute recovery ([1]; surface water) [%],absolute recovery ([1]; wastewater effluent) [%],absolute recovery ([1]; wastewater influent) [%],LC retention time [2] [min],absolute recovery ([3]; wastewater effluent) [%],absolute recovery ([3]; wastewater influent) [%]
Cc1cc(C2CC2)nc(Nc2ccccc2)n1 [Cyprodinil],100,93.8,92.5,89.9,19.8,86.9,88.2
O=C(Nc1ccccc1-c1ccc(Cl)cc1)c1cccnc1Cl [Boscalid],102,97.2,95.2,104,19.4,88.4,105
[NH3+]C12CC3CC(CC(C3)C1)C2 [Amantadine],90.7,79.3,86.2,87.2,12.1,104,114
CCC1OC(=O)C(C)C(OC2CC(C)(OC)C(O)C(C)O2)C(C)C(OC2OC(C)CC([NH+](C)C)C2O)C(C)(O)CC(C)C(=O)C(C)C(O)C1(C)O (stereo not drawn) [Erythromycin],50.1,69.3,78.3,83.3,16.9,113,–
COCc1cnc(C2=NC(C)(C(C)C)C(=O)N2)c(C(=O)[O-])c1 (stereo not drawn) [Imazamox],92.3,93.4,90.7,90.4,15.1,104,94.7
CCCC(C)C1(CC)C(=O)N=C([S-])NC1=O (stereo not drawn) [Thiopental],49.9,83.4,66.9,73.1,18.7,77.5,82.5
CCCCC(C#N)(Cn1cncn1)c1ccc(Cl)cc1 (stereo not drawn) [Myclobutanil],102,91.9,94,85.1,19.8,109,101
O=C1Nc2ccc(Cl)cc2C(c2ccccc2Cl)=NC1O (stereo not drawn) [Lorazepam],104,94.3,97.3,87.4,18.3,108,104
CC(O)(CS(=O)(=O)c1ccc(F)cc1)C(=O)Nc1ccc(C#N)c(C(F)(F)F)c1 (stereo not drawn) [Bicalutamid],100,97,94.3,95.2,18.6,–,102
CC1(C)CC1C(=O)NC(=CCCCCSCC([NH3+])C(=O)[O-])C(=O)[O-] (stereo not drawn) [Cilastatin],47.7,13.1,19.5,37,13.6,103,80.5
CC(C)(C)C(O)(CCc1ccc(Cl)cc1)Cn1cncn1 (stereo not drawn) [Tebuconazol],98.5,94.7,96,94.3,20.9,106,99.8
CCCCc1oc2ccc(NS(C)(=O)=O)cc2c1C(=O)c1ccc(OCCC[NH+](CCCC)CCCC)cc1 [Dronedaron],71.7,87.9,84.1,–,17.5,44.9,101
CCCC[NH+]1CCCCC1C(=O)Nc1c(C)cccc1C (stereo not drawn) [Bupivacaine],92,93.1,90.3,93.7,13.9,104,103
CCS(=O)(=O)c1cccnc1S(=O)(=O)[N-]C(=O)Nc1nc(OC)cc(OC)n1 [Rimsulfuron],127,124,95,95.2,17.6,93.8,85
Cc1nc(N(C)C)nc(OC(=O)N(C)C)c1C [Pirimicarb],99.4,94.3,93.5,94.1,14.1,102,98.7

# Continued, values first:
absolute recovery ([1]; nanopure water) [%],absolute recovery ([1]; surface water) [%],absolute recovery ([1]; wastewater effluent) [%],absolute recovery ([1]; wastewater influent) [%],LC retention time [2] [min],absolute recovery ([3]; wastewater effluent) [%],absolute recovery ([3]; wastewater influent) [%],SMILES
65.9,56.4,64.9,72.2,15.8,66.4,77.5,CCC1OC(=O)CC(O)C(C)C(OC2OC(C)C(OC3CC(C)(O)C(O)C(C)O3)C([NH+](C)C)C2O)C(CC=O)CC(C)C(=O)C=CC(C)=CC1COC1OC(C)C(O)C(OC)C1OC (stereo not drawn) [Tylosin]
95.4,98.7,102,94.8,19.3,120,95.3,CCOc1cc(CC(=O)NC(CC(C)C)c2ccccc2N2CCCCC2)ccc1C(=O)[O-] (stereo not drawn) [Repaglinide]
79.8,90.2,85.5,82.8,16.2,91.1,91.9,C[NH2+]CCC(Oc1ccc(C(F)(F)F)cc1)c1ccccc1 (stereo not drawn) [Fluoxetin]
64.2,81.9,80.1,64.2,15.9,21.6,64.3,COC(=O)C1C2CC3c4[nH]c5cc(OC)ccc5c4CC[NH+]3CC2CC(OC(=O)c2cc(OC)c(OC)c(OC)c2)C1OC (stereo not drawn) [Reserpin]
84.8,81.9,83.8,82,9.66,104,98.7,c1ccc(C2CN3CCSC3=[NH+]2)cc1 (stereo not drawn) [Levamisol]
82.7,63.7,69.7,69.5,7.61,83.6,72.2,CC(C)C([NH3+])C(=O)OCC(CO)OCn1cnc2c(=O)[nH+]c(N)[nH]c21 (stereo not drawn) [Valganciclovir]
80.1,95.7,87.5,98.8,17,90.2,90.4,CCC1OC(=O)C(C)C(OC2CC(C)(OC)C(O)C(C)O2)C(C)C(OC2OC(C)CC([NH+](C)C)C2O)C(C)(O)CC(C)C(=NOCOCCOC)C(C)C(O)C1(C)O (stereo not drawn) [Roxithromycin]
101,105,95.6,–,11.6,102,–,O=C1[N-]S(=O)(=O)c2ccccc21 [Saccharin]
98.2,97.5,93.6,89.3,19.2,65.8,59.1,COC(=O)c1ccc(C(F)(F)F)nc1S(=O)(=O)[N-]C(=O)Nc1nc(OC)cc(OC)n1 [Flupyrsulfuron-methyl-]
78.4,82.4,85.9,87.2,13.4,105,107,C=CCOc1ccccc1OCC(O)C[NH2+]C(C)C (stereo not drawn) [Oxprenolol]
94.7,98,91.7,96.1,17.2,99.5,104,Cc1ccc(NS(=O)(=O)N(C)C)cc1 [N-N-dimethyl-N-(4-methylphenyl)-sulfamide]
98.5,86,82.7,99,20.8,106,102,CC(C)(Oc1ccc(C(=O)c2ccc(Cl)cc2)cc1)C(=O)[O-] [Fenofibric-acid]
95,–,–,–,13.4,–,108,OCC1OC(OC2(CCl)OC(CCl)C(O)C2O)C(O)C(O)C1Cl (stereo not drawn) [Sucralose]
101,98.8,97,91.2,19,98,95.5,CSc1nc(NC2CC2)nc(NC(C)(C)C)n1 [Irgarol]
37.8,71.7,61.7,53.1,13.7,79.2,31.6,C=CC(=O)OCCOC(=O)CCC(=O)[O-] [Mono(2-acryloyloxyethyl)-succinate]
97.9,97.8,89.8,90.1,14.5,112,107,Cc1nnc(-c2ccccc2)c(=O)[n-]1 [Metamitron-Desamino]
99.2,103,99.5,93.3,17.9,93,89.9,O=c1c(-c2ccc(O)cc2)coc2cc([O-])cc(O)c12 [Genistein]
84.7,77.4,84.9,144,15.5,74.1,81.1,CC(=O)N(C)c1ccccc1 [N-Methylacetanilid]
86.6,80.5,82.3,93.5,20.8,103,99.8,CCc1cccc2c3c([nH]c12)C(CC)(CC(=O)[O-])OCC3 (stereo not drawn) [Etodolac]
